Measurements from US20260317306A1, “HETEROARYL DERIVATIVE COMPOUND AND USE THEREOF” (S2CBIO INC., priority 2022, published 2026).

Biological target: T1, human ANO6 (variant 5) (Homo sapiens, UniProt Q4KMQ2)
T1 construct: expressing human ANO6 (variant 5; NP_001191732.1); expressed in transfected cells; host or cells: Fischer rat thyroid (FRT) cells
T1 sequence (Q4KMQ2 1-931 isoform Q4KMQ2-2): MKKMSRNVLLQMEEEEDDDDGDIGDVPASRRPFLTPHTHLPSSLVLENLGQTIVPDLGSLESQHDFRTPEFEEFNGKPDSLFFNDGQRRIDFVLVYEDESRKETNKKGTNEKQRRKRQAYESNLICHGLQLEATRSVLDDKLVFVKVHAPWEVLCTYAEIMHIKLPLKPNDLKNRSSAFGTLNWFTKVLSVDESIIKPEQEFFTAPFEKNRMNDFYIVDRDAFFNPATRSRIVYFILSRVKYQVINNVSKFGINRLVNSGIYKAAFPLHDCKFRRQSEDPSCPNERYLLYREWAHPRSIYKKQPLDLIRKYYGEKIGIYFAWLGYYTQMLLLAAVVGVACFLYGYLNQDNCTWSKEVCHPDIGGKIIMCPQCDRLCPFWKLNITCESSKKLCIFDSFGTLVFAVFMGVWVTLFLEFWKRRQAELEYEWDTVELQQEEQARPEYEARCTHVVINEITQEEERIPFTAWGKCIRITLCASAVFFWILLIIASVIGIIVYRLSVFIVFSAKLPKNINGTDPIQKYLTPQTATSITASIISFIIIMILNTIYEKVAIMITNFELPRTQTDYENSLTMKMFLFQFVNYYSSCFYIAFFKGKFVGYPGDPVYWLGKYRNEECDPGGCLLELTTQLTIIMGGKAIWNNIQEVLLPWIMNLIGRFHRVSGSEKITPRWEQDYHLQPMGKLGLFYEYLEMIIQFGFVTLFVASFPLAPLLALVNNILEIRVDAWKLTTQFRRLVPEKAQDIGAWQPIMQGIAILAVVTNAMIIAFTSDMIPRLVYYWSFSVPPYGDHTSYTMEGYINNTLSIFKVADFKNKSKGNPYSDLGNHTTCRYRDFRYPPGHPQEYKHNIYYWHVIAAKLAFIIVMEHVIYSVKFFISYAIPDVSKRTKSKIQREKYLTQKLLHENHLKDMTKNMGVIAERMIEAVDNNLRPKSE
Assay: Lact C2 Assay (Measuring Phosphatidylserine Externalization Scramblase Function), ionomycin-treated Fischer rat thyroid (FRT) cells expressing human ANO6 (variant 5); compounds at 50 nM, 100 nM and 1 μM
Type: cell-based
Conditions: 10 μM ionomycin, average of three tests, read-out: % Inhibition (phosphatidylserine externalization inhibitory activity); for inhibition at 0.05 µM: compound at 50 nM; for inhibition at 0.1 µM: compound at 100 nM
Protocol: Ionomycin (Alomonelab, cat. #I-700), DAPI (Sigma-Aldrich, cat. #D8417), paraformaldehyde (Biosesang, cat. #P2031), Lionheart FX automated fluorescence microscope (BioTek), Gen5™ software program (BioTek), and Image J analysis software program.
Fisher rat thyroid (FRT) cells expressing human ANO6 (variant 5; GenBank accession no. NP_001191732.1) were cultured at 37° C. under 5% Co2 conditions in DMEM/Ham's F-12 (1:1) medium supplemented with 10% Fetal Bovine Serum, 2 mM […], 100 units/mL penicillin, and 100 μg/mL streptomycin.
Fischer Rat Thyroid (FRT) cells (2×10^4 cells/well) expressing human ANO6 (variant 5) were cultured in a 96-well microplate for 24 hours. After the incubation, the cells were treated with compounds dissolved in DMSO to 1% v/v in each well at each concentration (50 nM, 100 nM, and 1 μM) and reacted for 10 minutes. Thereafter, each well was treated with ionomycin to a final concentration of 10 μM, allowed to react for 10 minutes, and then washed with 200 μL PBS. After washing, each well was treated with 50 μL of Lactadherin-C2 (Lact-C2)-GFP mixed in DMEM medium to a final concentration of 500 nM to stain phosphatidylserine, and cultured at 37° C. for 10 minutes. After completion of the reaction, the cells were washed with 200 μL PBS, and fixed with 4% paraformaldehyde for 5 minutes at room temperature. For morphological analysis, DAPI solution was added, and the cells were incubated for 15 minutes, followed by washing with PBS. The fluorescence intensity of Lact-C2-GFP bound to phosphatidylserine on the cell surface was measured using an automated fluorescence microscope. For quantitative analysis of the fluorescence intensity of Lact-C2-GFP, BioTek Gen5™ software and Image J analysis software programs were used.
Phosphatidylserine externalization inhibitory activity (%) by the compound was calculated through the following analysis method. Specifically, the background fluorescence value was subtracted from the measured Lact-C2-GFP fluorescence value, and the fluorescence value of the ionomycin non-treatment group and the ionomycin-treatment group in the same row where each test group was located in a 96-well microplate were calculated. In order to calculate the inhibitory activity (%) by the compound, the relative inhibitory activity was calculated by setting the compound and ionomycin non-treatment group to 100% inhibitory activity and the ionomycin alone treatment group to 0% inhibitory activity. To derive the results, the test was repeated three times, and the average values of the results were classified according to the range below and shown in Table 4 below (A: >60% inhibition, B: 30 to 60% inhibition, N/A: no test).

Row | inhibition at 0.05 µM | inhibition at 0.1 µM | SMILES
1 | > 60% | > 60% | Fc1ccc2nc(-c3cccc(Nc4ccc(-c5cccnn5)cn4)c3)[nH]c2c1 [Example 55]
2 | 30 to 60% | > 60% | c1cc(Nc2ncc(-c3ccncn3)cn2)cc(-c2nc3ccccc3[nH]2)c1 [Example 76, N-[3-(1H-benzo[d]imidazol-2-yl)phenyl]-[4,5′-bipyrimidin]-2′-amine]
